Holding throughout (type): cell-based
The test system of one data set is Escherichia coli N-10. Kind of data set: Gradient plate in vitro MIC, N10. The following applies: N10, G-; for MIC: Escherichia coli, read-out: minimum inhibitory concentration (MIC). The text has this: (§1) The data which follow are minimum inhibitory concentrations (MIC) in micrograms of compound per milliliter of agar medium in standard gradient plate in vitro tests against various Gram positive and Gram negative microorganisms. The data given here are for compounds satisfying the general formula [drawing 25] where R and X are as defined in the table which follows:
(§2) 1. The gradient plate procedure used is essentially that described by
(§3) Bryson and Szybalski in 1952 (Science, 116, pp. 45-46). The inoculum
(§4) 3. Gram negative microorganism identifications:
N-10 is Escherichia coli

Data set [1] relates to penicillin-resistant Staphylococcus aureus strain V-32. Kind of data set: Gradient plate in vitro MIC, strain V32. To be noted: V32, G+; for MIC: Staphylococcus aureus, read-out: minimum inhibitory concentration (MIC).
Description: as §1, §2, §3
(§5) treatment method used for penicillin-resistant Staphlococci was reported
(§6) by Godzeski et al. in Antimicrobial Agents and Chemotherapy, May, 1961,
(§7) 2. Gram positive microorganism identifications are all
(§8) penicillin-resistant Staphylococcus aureus strains V-41, V-32, X-400,
(§9) V-84. X-400 is also Methicillin-resistant.

The subject of data set [2] is penicillin-resistant Staphylococcus aureus strain V-84. In words: Gradient plate in vitro MIC, strain V84. The following applies: V84, G+; for MIC: Staphylococcus aureus, read-out: minimum inhibitory concentration (MIC).
Description: as §1, §2, §3, §5, §6, §7, §8, §9

The subject of a further data set is Schigella sp. N-9. Kind of data set: Gradient plate in vitro MIC, N9. To be noted: N9, G-; for MIC: read-out: minimum inhibitory concentration (MIC).
Description: as §1, §2, §3

Data set [3] has as its system Enterobacter aerogenes X-68. In words: Gradient plate in vitro MIC, X68. To be noted: X68, G-; for MIC: Klebsiella aerogenes, read-out: minimum inhibitory concentration (MIC).
Description: as §1, §2, §3, §4
X-68 is Enterobacter aerogenes

In data set [4] the test system is Pseudomonas aerogenosa X-528. Kind of data set: Gradient plate in vitro MIC, X528. The following applies: X528, G-; for MIC: Pseudomonas, read-out: minimum inhibitory concentration (MIC).
Description: as §1, §2, §3, §4
X-528 is Pseudomonas aerogenosa

For data set [5], the system named is penicillin-resistant Staphylococcus aureus strain V-41. In words: Gradient plate in vitro MIC, strain V41. To be noted: V41, G+, read-out: minimum inhibitory concentration (MIC).
Description: as §1, §2, §3, §5, §6, §7, §8, §9

In a further data set the test system is Serratia marcescens X-99. Kind of data set: Gradient plate in vitro MIC, X99. The following applies: X99, G-; for MIC: Serratia marcescens, read-out: minimum inhibitory concentration (MIC).
Description: as §1, §2, §3, §4
X-99 is Serratia marcescens

Data set [6] relates to Salmonella heidellberg X-514. Kind of data set: Gradient plate in vitro MIC, X514. To be noted: X514, G-; for MIC: Salmonella, read-out: minimum inhibitory concentration (MIC).
Description: as §1, §2, §3, §4
X-514 is Salmonella heidellberg

Data set [7] has as its system Klebsiella pneumonia X-26. In words: Gradient plate in vitro MIC, X26. To be noted: X26, G-; for MIC: Klebsiella pneumoniae, read-out: minimum inhibitory concentration (MIC).
Description: as §1, §2, §3, §4
X-26 is Klebsiella pneumonia

The test system of data set [8] is penicillin-resistant, Methicillin-resistant Staphylococcus aureus strain X-400. Kind of data set: Gradient plate in vitro MIC, strain X400. To be noted: X400, G+, penicillin- and Methicillin-resistant; for MIC: Staphylococcus aureus, read-out: minimum inhibitory concentration (MIC).
Description: as §1, §2, §3, §5, §6, §7, §8, §9

For a further data set, the system named is B. subtilis. In words: Bioautograph test against B. subtilis. To be noted: at 1 microgram/milliliter. On the procedure: Each of the cis-and trans-isomers of tert-butyl 3-(2'-cyanovinyl)-7-phenoxyacetamido-3-cephem-4-carboxylate from Example 17 was in turn treated with 98-100 percent formic acid for 1 hour at room temperature to cleave the tert-butyl ester groups therefrom. After evaporation under reduced pressure of the excess formic acid, the acid residue was separated as an oil.

In data set [9] the test system is Gram positive and Gram negative microorganisms. Kind of data set: Standard gradient plate assay, Gram positive and Gram negative microorganisms.
Description: as §1, §2, §3

In a further data set the test system is Sarcina lutea. Kind of data set: Bioautograph against Sarcina lutea. On the procedure:
(§10) A solution of 25 mg. of tert-butyl 7-(2'-tert-butoxycarbonylamino-2'-phenylacetamido)-3-(2'-tert-butoxycarbonylvinyl)-3-cephem-4-carboxylate, prepared as described in Example 19, in 5 cc of 98-100 percent formic acid was allowed to stand for 1 hour at room temperature. After evaporating under reduced pressure the formic acid, the acid residue was taken up in trifluoroacetic acid and the NMR spectrum was taken.

For data set [10], the system named is Gram positive and Gram negative microorganisms. In words: Disc plate assay. The following applies: variety of Gram positive and Gram negative microorganisms. On the procedure:
as §10

≈ marks a conversion by molar mass, not a printed value.

In the case of `CCOC(=O)C=CC1=C(C(=O)O)N2C(=O)C(NC(=O)Cc3cccs3)C2SC1` (stereo not shown), the MIC in the data set with Escherichia coli N-10 is 3.8 µg/mL (≈ 8.99 µM); in data set [1] it was 7.5 µg/mL (≈ 17.8 µM); in data set [2], 7.1 µg/mL (≈ 16.8 µM); in the data set on Schigella sp. N-9, 2.6 µg/mL (≈ 6.15 µM); in data set [3] it was 3.3 µg/mL (≈ 7.81 µM); in data set [4], > 50 µg/mL. The MIC in data set [5] was 6.2 µg/mL (≈ 14.7 µM); in the data set with Serratia marcescens X-99, > 50 µg/mL; in [6] it was 4.7 µg/mL (≈ 11.1 µM); in data set [7], 5.3 µg/mL (≈ 12.5 µM); in data set [8] it was > 20 µg/mL.

As to `O=C(O)C=CC1=C(C(=O)O)N2C(=O)C(NC(=O)[C@H](O)c3ccccc3)C2SC1` (stereo partly shown), the MIC is 5.7 µg/mL (≈ 14.1 µM) in the data set with Escherichia coli N-10; > 20 µg/mL in data set [1]; 11.2 µg/mL (≈ 27.7 µM) in data set [2]; 3.3 µg/mL (≈ 8.16 µM) in the data set on Schigella sp. N-9; 1 µg/mL (≈ 2.47 µM) in data set [3]; > 50 µg/mL in [4]. Also, the MIC was > 20 µg/mL in data set [5]; > 50 µg/mL with Serratia marcescens X-99; 0.6 µg/mL (≈ 1.48 µM) in [6]; 5 µg/mL (≈ 12.4 µM) in data set [7]; > 20 µg/mL in [8].

On to “3-(2-cyanovinyl)-7-phenoxyacetamido-3-cephem-4-carboxylic acid”, for which the “minimum inhibitory concentration (MIC)” value in the data set on Escherichia coli N-10 is on record as 102.0 micrograms of compound per mil; in [1], 6.1 micrograms of compound per mil; in data set [2], 3.8 micrograms of compound per mil; in the data set on Schigella sp. N-9, 40.4 micrograms of compound per mil; in [3] it was 38.2 micrograms of compound per mil; in data set [4], 162.0 micrograms of compound per mil. For the same compound, the “minimum inhibitory concentration (MIC)” value with Serratia marcescens X-99 was 21.0 micrograms of compound per mil; in data set [6], 12.1 micrograms of compound per mil; in data set [7] it was 110.0 micrograms of compound per mil; in data set [8] it was > 20 micrograms of compound per mil.

Consider `N#C/C=C\C1=C(C(=O)O)N2C(=O)C(NC(=O)COc3ccccc3)C2SC1` (single isomer, unassigned; isomer 3) [Example 20 cis-isomer, 3-(2-cyanovinyl)-7-phenoxyacetamido-3-cephem-4-carboxylic acid], for which the “antibiotic activity zone on bioautograph” value with B. subtilis is on record as “large antibiotic activity zone”.

For `N#C/C=C/C1=C(C(=O)O)N2C(=O)C(NC(=O)COc3ccccc3)C2SC1` (single isomer, unassigned; isomer 3) [Example 20 trans-isomer, 3-(2-cyanovinyl)-7-phenoxyacetamido-3-cephem-4-carboxylic acid], the “antibiotic activity zone on bioautograph” value with B. subtilis is recorded as “large antibiotic activity zone”. For the same compound, in data set [9] (against both Gram positive and Gram negative microorganisms), the “gradient plate MIC, trans-isomer compared with cis-isomer” value is “more active than the cis-isomer”.

For the compound `O=C(O)C=CC1=C(C(=O)O)N2C(=O)C(NC(=O)C(C(=O)O)c3ccccc3)[C@H]2SC1` (stereo partly shown) [7-(2'-carboxy-2'-phenylacetamido)-3-(2'-carboxyvinyl)-3-cephem-4-carboxylic acid], the MIC was 36.5 µg/mL (≈ 84.4 µM) in the data set on Escherichia coli N-10; > 20 µg/mL in data set [1]; > 20 µg/mL in [2]; 7 µg/mL (≈ 16.2 µM) in the data set on Schigella sp. N-9; 2 µg/mL (≈ 4.63 µM) in data set [3]; 29.5 µg/mL (≈ 68.2 µM) in data set [4]. Also, the MIC in data set [5] is > 20 µg/mL; in the data set on Serratia marcescens X-99 it was < 8 µg/mL; in data set [6], 1 µg/mL (≈ 2.31 µM); in data set [7], 35 µg/mL (≈ 80.9 µM); in data set [8] it was > 20 µg/mL.

Consider `CCOC(=O)C=CC1=C(C(=O)O)N2C(=O)C(NC(=O)C(C(=O)O)c3ccccc3)[C@H]2SC1` (stereo partly shown) [7-(2'-carboxy-2'-phenylacetamido)-3-(2'-ethoxycarbonylvinyl)-3-cephem-4-carboxylic acid], for which the MIC in the data set on Escherichia coli N-10 came out at 6.3 µg/mL (≈ 13.7 µM); in data set [1], 10.3 µg/mL (≈ 22.4 µM); in data set [2], 11.4 µg/mL (≈ 24.8 µM); in the data set with Schigella sp. N-9, 1 µg/mL (≈ 2.17 µM); in data set [3], 3 µg/mL (≈ 6.52 µM); in data set [4], 42.2 µg/mL (≈ 91.6 µM). In addition, the MIC in data set [5] is 7.9 µg/mL (≈ 17.2 µM); with Serratia marcescens X-99 it was 0.6 µg/mL (≈ 1.3 µM); in data set [6], 0.8 µg/mL (≈ 1.74 µM); in data set [7], 2.5 µg/mL (≈ 5.43 µM); in data set [8], > 20 µg/mL.

For the compound `CCOC(=O)C=CC1=C(C(=O)O)N2C(=O)C(NC(=O)COc3ccccc3)[C@H]2SC1` (stereo partly shown) [Example 3, 3-(2'-ethoxycarbonylvinyl)-7-phenoxyacetamido-3-cephem-4-carboxylic acid], the “activity as an antibiotic in gradient plate tests” value in [9] (variety of both Gram positive and Gram negative microorganisms) is reported as “showed activity as an antibiotic”.

In the case of `NC(C(=O)NC1C(=O)N2C(C(=O)O)=C(C=CC(=O)O)CS[C@H]12)c1ccccc1` (stereo partly shown) [Example 23, 7-(2'-amino-2'-phenylacetamido)-3-(2'-carboxyvinyl)-3-cephem-4-carboxylic acid], the “antibiotically active zone on bioautograph” value with Sarcina lutea (acid residue after formic acid/trifluoroacetic acid) is listed as “only one antibiotically active zone”. Besides, in the data set with Sarcina lutea (compared with cephalexin), the “polarity of the active zone on the bioautograph” value is on record as “more polar than cephalexin”. The “antibiotic activity in disc plate assay” value in data set [10] is reported as “antibiotic activity”.

(Values after US4065620A, “3-(Substituted) vinyl cephalosporins” (Eli Lilly and Company, priority 1971, dated 1977).)
